# Non-standard residues stand in square brackets, D forms with d. Residues, ends and D or L forms follow the SMILES beside them.
# Tests used:
# E. coli 729 = format: cell-based, Escherichia coli
# Experimental: (§1) • A. The polypeptide Z4 composed entirely of dextrorotatory amino acids is called the dextrorotatory isomer of polypeptide Z4. The polypeptide Z4-D was prepared into a certain stock solution for use. 0.01% acetic acid (containing 0.2% BSA) was used as the diluent, and a series of gradient antimicrobial peptide solutions were prepared in sequence by a two-fold dilution method. • B. 100 μL of the above-mentioned antimicrobial peptide stock solution was taken and placed in a 96-well cell culture plate. Then, an equal volume of the test bacterial solution (approximately […]) was added to each well. A positive control (containing the bacterial solution but no antimicrobial peptide) and a negative control (containing neither the bacterial solution nor the peptide) were included, respectively. The test bacterial species include Pseudomonas aeruginosa (Pseudomonas aeruginosa PL1, Pseudomonas aeruginosa SP1), Staphylococcus aureus (Staphylococcus aureus 544, Staphylococcus aureus 103), Escherichia coli (Escherichia coli 729, Escherichia coli 112), Klebsiella Pneumoniae (Klebsiella Pneumoniae 106, Klebsiella Pneumoniae 727), Streptococcus pneumonia 383, and Acinetobacter baumannii (Acinetobacter baumannii 946, Acinetobacter baumannii 780). • C. […] The minimum inhibitory concentration is determined as the condition where no turbidity is observed at the bottom of the well with naked eyes.
# E. coli 112 = format: cell-based, Escherichia coli
# Experimental: as §1
# various bacteria = test: MIC against various bacteria (broad-spectrum antimicrobial activity); format: cell-based
# Experimental: • A. The antimicrobial peptide was prepared into a certain stock solution for use. 0.01% acetic acid (containing 0.2% BSA) was used as the diluent, and a series of gradient antimicrobial peptide solutions were prepared sequentially by a two-fold dilution method. • B. 100 μL of the above-mentioned antimicrobial peptide stock solution was taken and placed in a 96-well cell culture plate. Then, an equal volume of the test bacterial solution (approximately 10^5 cells/mL) was added to each well. A positive control (containing the bacterial solution but no antimicrobial peptide) and a negative control (containing neither bacterial solution nor the peptide) were included, respectively. The test bacterial species include Pseudomonas aeruginosa (Pseudomonas aeruginosa PL1, Pseudomonas aeruginosa SP1), Staphylococcus aureus (Staphylococcus aureus 544, Staphylococcus aureus 103), Escherichia coli (Escherichia coli 729, Escherichia coli 112), Klebsiella Pneumoniae (Klebsiella Pneumoniae 106, Klebsiella Pneumoniae 727), Streptococcus pneumonia 383, Acinetobacter baumannii (Acinetobacter baumannii 946, Acinetobacter baumannii 780) (FIG. 1), or Pseudomonas aeruginosa (Pseudomonas aeruginosa PAO1), Staphylococcus aureus (Staphylococcus aureus SP1), and a mixed solution of the above two bacteria (FIG. 2). • C. The culture plate was placed in a constant temperature incubator at 37° C. for 20 h. The minimum inhibitory concentration is determined as the condition where no turbidity is observed at the bottom of the well with naked eyes.
# • A. The polypeptide Z4 composed entirely of dextrorotatory amino acids is called the dextrorotatory isomer of polypeptide Z4. The polypeptide Z4-D was prepared into a certain stock solution for use. […] The minimum inhibitory concentration is determined as the condition where no turbidity is observed at the bottom of the well with naked eyes.
# P. aeruginosa SP1 = format: cell-based, Pseudomonas aeruginosa
# Experimental: as §1
# P. aeruginosa PL1 = format: cell-based, Pseudomonas aeruginosa
# Experimental: as §1
# S. pneumoniae 383 = format: cell-based, Streptococcus pneumonia
# Experimental: as §1
# K. pneumoniae 727 = format: cell-based, Klebsiella Pneumoniae
# Experimental: as §1
# K. pneumoniae 106 = format: cell-based, Klebsiella Pneumoniae
# Experimental: as §1
# A. baumannii 946 = format: cell-based, Acinetobacter baumannii
# Experimental: as §1
# A. baumannii 780 = format: cell-based, Acinetobacter baumannii
# Experimental: as §1
# [1] = tested on: mixed bacterial solution of P. aeruginosa PAO1 and S. aureus SP1; format: cell-based; settings: within 0-120 minutes of proteinase K treatment, remained unchanged
# Experimental: After ultrasonic treatment of polypeptide Z4 and polypeptide Z4-D for 30 min, they were placed at room temperature for 2 h to promote their self-assembly. Subsequently, proteinase K with a final concentration of 0.2 g/mL was mixed with the polypeptide solution (final concentration of 640 μM) and incubated at 37° C. for 0, 30, 60, 90 or 120 min respectively. Then, according to the scheme described in Example 2, the MICs of the polypeptides against the mixed bacterial solution of P. aeruginosa PAO1 and S. aureus SP1 under different treatment conditions were determined.
# S. aureus 544 = format: cell-based, Staphylococcus aureus
# Experimental: as §1
# S. aureus 103 = format: cell-based, Staphylococcus aureus
# Experimental: as §1
compound,measurement,setting,value
NCCCC[C@@H](NC(=O)[C@@H](Cc1c[nH]c2ccccc12)NC(=O)[C@H](N)Cc1c[nH]c2ccccc12)C(=O)N[C@H](CCCCN)C(=O)N[C@H](Cc1c[nH]c2ccccc12)C(=O)N[C@H](CCCCN)C(=O)N[C@H](CCCCN)C(=O)N[C@H](Cc1c[nH]c2ccccc12)C(=O)N[C@H](Cc1c[nH]c2ccccc12)C(N)=O [Z4-D] (H-[dW][dW][dK][dK][dW][dK][dK][dW][dW]-NH2; N-terminus assumed),MIC,E. coli 729,4 µM
same,MIC,E. coli 112,4 µM
same,broad-spectrum antimicrobial activity,various bacteria,good broad-spectrum antimicrobial activity
same,MIC,P. aeruginosa SP1,4 µM
same,MIC,P. aeruginosa PL1,16 µM
same,MIC,S. pneumoniae 383,4 µM
same,MIC,K. pneumoniae 727,32 µM
same,MIC,K. pneumoniae 106,128 µM
same,MIC,A. baumannii 946,4 µM
same,MIC,A. baumannii 780,16 µM
same,MIC after proteinase K treatment,[1],4 µM
same,MIC,S. aureus 544,4 µM
same,MIC,S. aureus 103,4 µM

# Source: patent publication US20260217761A1, “ANTIMICROBIAL PEPTIDE RICH IN TRYPTOPHAN AND HAVING SELF-ASSEMBLY PROPERTIES, AND USE THEREOF” (NANOQURE BIOTECH (SHENZHEN) CO., LTD., priority 2022, published 2026)
